Test systems include UACC-62 melanoma; SF-539 CNS; CAKI-1 renal; SK-MEL-5 melanoma; NCI-H23 lung; IGROV1 ovarian; SF-268 CNS; SK-MEL-28 melanoma; T-47D breast; BT-549 breast.
What all share (test): NCI anticancer screen, dose series, 48 h

“And” between values parts separate entries of the source, which are not always exact repeats. Identical values can stand only once.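 Step 1: Grow cells in 96-well plates. Step 2: Expose to compound for 48 hours at 5 concentrations. Step 3: Interpolate endpoints linearly; if unreached, use highest concentration. GI50 marks 50% less growth. Definition used: TGI = concentration required for complete inhibition of growth.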 Bounds are passed on as bounds.

As for `Cc1cccc(C)c1NC(=O)CCC(=O)NC(N)=S`, the TGI in the assay on UACC-62 melanoma, in the assay on SF-539 CNS, with CAKI-1 renal, in the assay with SK-MEL-5 melanoma, with NCI-H23 lung and in the assay with IGROV1 ovarian was more than 100 µM throughout.
`Cn1c2ccccc2c(=O)c2c([N+](=O)[O-])ccc(NCCN)c21`: the TGI in the assay with UACC-62 melanoma was 29.6 µM; in the assay on SF-539 CNS, 20.8 µM; in the assay on CAKI-1 renal, 25.9 µM; with SF-268 CNS, 26 µM; in the assay with SK-MEL-5 melanoma, 27.2 µM; with SK-MEL-28 melanoma, 29.2 µM. Besides, the values for the TGI in the assay on NCI-H23 lung and in the assay on IGROV1 ovarian were 23.6 µM and 27.2 µM, respectively.
Regarding `CC(CN1CCN(CC(C)Nc2ccnc3cc(Cl)ccc23)CC1)Nc1ccnc2cc(Cl)ccc12` (stereo not drawn), the TGI in the assay on UACC-62 melanoma is 32.5 µM; in the assay on SF-539 CNS it was 10.4 µM; with CAKI-1 renal it was more than 100 µM; with SF-268 CNS it was more than 36 µM; in the assay with SK-MEL-5 melanoma, 23.5 µM; in the assay on SK-MEL-28 melanoma it was 10.4 µM. The TGI in the assay with NCI-H23 lung is more than 57 µM; in the assay with T-47D breast it was 74.6 µM; in the assay on IGROV1 ovarian, more than 100 µM. For the same compound, the figures for the GI50 in the assay on T-47D breast and in the assay with IGROV1 ovarian were 35.2 µM and 9.37 µM, respectively.
Take `COc1cc(NCC2COc3c(ccc(OC)c3OC)C2=O)c([N+](=O)[O-])cc1OC` (stereo not drawn): the TGI in the assay on UACC-62 melanoma, in the assay with SF-539 CNS, with CAKI-1 renal, in the assay on SF-268 CNS, in the assay on SK-MEL-5 melanoma and in the assay on SK-MEL-28 melanoma was more than 100 µM in each case. For the same compound, the TGI in the assay with NCI-H23 lung, in the assay with T-47D breast and with IGROV1 ovarian was more than 100 µM each time.
Turning to `Cc1nc2cc(Nc3nc(Nc4ccc(F)cc4)nc(N4CCN(C)CC4)n3)ccc2n1Cc1ccccc1`, the GI50 was 1.73 µM in the assay with BT-549 breast; 1.73 µM in the assay on SF-539 CNS; 2.19 µM with CAKI-1 renal; 1.86 µM with SF-268 CNS; 1.54 µM with SK-MEL-5 melanoma; 1.73 µM with SK-MEL-28 melanoma. Further, the GI50 is 2 µM with NCI-H23 lung and 2.45 µM with IGROV1 ovarian. Also, the TGI in the assay with BT-549 breast stood at 3.44 µM; with SF-539 CNS, 3.13 µM; in the assay with CAKI-1 renal, 5.4 µM; with SF-268 CNS it was 4.08 µM; in the assay on SK-MEL-5 melanoma it was 2.89 µM; with SK-MEL-28 melanoma it was 3.16 µM. The results for the TGI with NCI-H23 lung and in the assay on IGROV1 ovarian were 4.5 µM and 5.83 µM, respectively.
For the compound `CO[C@@]12C[C@H]3[C@@H]([C@@H](O)[C@@H](OC(=O)/C=C/c4ccccc4)[C@@]4(O)C(C)(C)CCC[C@]34C)[C@@H](C)C1=CC(=O)O2`, the GI50 with BT-549 breast is 11.3 µM; in the assay on UACC-62 melanoma, 1.55 µM; in the assay with SF-539 CNS, 12.4 µM; in the assay on CAKI-1 renal, 6.76 µM; with SF-268 CNS it was 6.78 µM; in the assay on SK-MEL-5 melanoma, 4.55 µM. In addition, the values for the GI50 in the assay on SK-MEL-28 melanoma, in the assay on NCI-H23 lung and with IGROV1 ovarian were 11.3 µM, 13.5 µM and 29.5 µM, respectively. The TGI in the assay with BT-549 breast was 27.9 µM; in the assay with UACC-62 melanoma it was 5.62 µM; in the assay with SF-539 CNS it was 27.4 µM; in the assay on CAKI-1 renal, 30.8 µM; with SF-268 CNS it was 72.8 µM; in the assay with SK-MEL-5 melanoma it was 18.3 µM. For the same compound, the TGI in the assay with SK-MEL-28 melanoma was 35.4 µM; with NCI-H23 lung it was 42.2 µM; in the assay with IGROV1 ovarian, more than 100 µM.
As to `CCCCCC(O)(CCCCC)CCCCCCCCC1=C(O)c2[nH]c(=O)ccc2C(=O)C1=O`, the TGI was determined as 10.9 µM in the assay with UACC-62 melanoma; 20.3 µM with SF-539 CNS; 32 µM with CAKI-1 renal; 19.1 µM with SF-268 CNS; 12.9 µM in the assay with SK-MEL-5 melanoma; 20.7 µM in the assay with SK-MEL-28 melanoma. In addition, the TGI with NCI-H23 lung turned out to be 7.73 µM; in the assay with IGROV1 ovarian, 18.9 µM.
As for `c1cc[c]([Sn]([S]c2cccc3cccnc23)([S]c2cccc3cccnc23)[c]2ccccc2)cc1`, the GI50 in the assay with UACC-62 melanoma is 0.186 µM; in the assay with SF-539 CNS, 0.295 µM; with CAKI-1 renal, 0.134 µM; with SF-268 CNS, 0.331 µM; in the assay on SK-MEL-5 melanoma it was 0.204 µM; with SK-MEL-28 melanoma, 0.196 µM. Besides, the results for the GI50 with NCI-H23 lung and with IGROV1 ovarian were 0.198 µM and 0.267 µM, respectively. The TGI in the assay with UACC-62 melanoma turned out to be 0.43 µM; in the assay with SF-539 CNS it was 0.893 µM; in the assay on CAKI-1 renal, 0.43 µM; in the assay with SF-268 CNS, 1.48 µM; in the assay on SK-MEL-5 melanoma it was 0.483 µM; with SK-MEL-28 melanoma it was 0.532 µM. In addition, the TGI with NCI-H23 lung is 0.46 µM; in the assay on IGROV1 ovarian, 0.789 µM.
On to `N#CC(C(=N/NC(N)=S)/C(=N/NC(N)=S)C(C#N)c1ccc(Cl)cc1)c1ccc(Cl)cc1` (stereo not drawn), for which the TGI in the assay with UACC-62 melanoma, with SF-539 CNS, with SF-268 CNS, in the assay with SK-MEL-5 melanoma, with SK-MEL-28 melanoma and with NCI-H23 lung was more than 100 µM each time. The compound further yielded a TGI with IGROV1 ovarian of more than 100 µM.
As to `Cc1cc(C)cc(Nc2ccc([N+](=O)[O-])c(NCCN3CCOCC3)n2)c1`, the TGI in the assay with BT-549 breast was more than 100 µM; with UACC-62 melanoma, more than 100 µM; with SF-539 CNS, 0.00587 µM and 0.0564 µM; in the assay on CAKI-1 renal, more than 100 µM; with SF-268 CNS, 85.2 µM; in the assay on SK-MEL-5 melanoma it was 0.0332 µM and 0.256 µM. The TGI in the assay on SK-MEL-28 melanoma, in the assay on NCI-H23 lung and in the assay with IGROV1 ovarian was more than 100 µM in each case. Also, the GI50 with SF-539 CNS was 0.0016 µM; in the assay on CAKI-1 renal it was 0.00163 µM; in the assay on SK-MEL-5 melanoma, 0.00082 µM; with SK-MEL-28 melanoma, 0.672 µM and 2.75 µM; with NCI-H23 lung it was 0.00739 µM and 0.0275 µM.
Turning to `CCCCCCCCCCCC(O)=C1C(=O)CC(O)CC1=O` (stereo not drawn), the TGI in the assay on UACC-62 melanoma, in the assay on SF-539 CNS, in the assay on CAKI-1 renal, in the assay with SF-268 CNS, in the assay on SK-MEL-5 melanoma and in the assay on SK-MEL-28 melanoma was more than 100 µM each time. Besides, the TGI in the assay with NCI-H23 lung and with IGROV1 ovarian was more than 100 µM each time.
`CC1(C)CC(=O)C(=[N+]=[N-])C(=O)C1`: the TGI in the assay with UACC-62 melanoma, with SF-539 CNS, in the assay on CAKI-1 renal, in the assay with SF-268 CNS, in the assay on SK-MEL-28 melanoma and in the assay on NCI-H23 lung was more than 100 µM in each case. In the assay on IGROV1 ovarian, this compound displayed a TGI of more than 100 µM.

(Values after PubChem BioAssay (NCI).)
